In BigSolDB 2.1:

COc1c(C(C)(C)C)cc([N+](=O)[O-])c(C)c1[N+](=O)[O-]
solubility (mole fraction)
Settings | 278.15 K | 283.15 K | 288.15 K | 293.15 K | 298.15 K | 303.15 K | 308.15 K | 313.15 K | 318.15 K
in DMAc | 0.121 | 0.14 | 0.162 | 0.189 | 0.221 | 0.258 | 0.3 | 0.347 | 0.4
in DMF | 0.0875 | 0.107 | 0.127 | 0.154 | 0.183 | 0.221 | 0.263 | 0.31 | 0.372
in THF | 0.157 | 0.177 | 0.203 | 0.231 | 0.264 | 0.302 | 0.342 | 0.391 | 0.446
in acetonitrile | 0.0355 | 0.0456 | 0.0608 | 0.0819 | 0.111 | 0.146 | 0.189 | 0.25 | 0.33
in ethanol | 0.00359 | 0.0046 | 0.00594 | 0.00791 | 0.00992 | 0.0131 | 0.0164 | 0.0215 | 0.0276
in methanol | 0.00266 | 0.00351 | 0.00447 | 0.00561 | 0.00719 | 0.00897 | 0.0112 | 0.0144 | 0.018
in n-butanol | 0.00491 | 0.00673 | 0.0088 | 0.0111 | 0.0143 | 0.0192 | 0.0241 | 0.0308 | 0.0405
in n-propanol | 0.00367 | 0.00463 | 0.00591 | 0.00789 | 0.0105 | 0.0137 | 0.0182 | 0.024 | 0.0311
